Entries after “also recorded” stand apart in the source; their conditions may differ. Each block holds one molecule with its values, some of them ahead of it.
How the values were obtained:
PPARδ/β = biological target: T1, PPARδ/β (Homo sapiens, UniProt Q03181); test: PPARδ/β ligand trap transgenic zebrafish line; details: in vivo
T1 construct: expressed in transfected cells; host or cells: transgenic zebrafish embryos (ligand-trap line)
T1 sequence (Q03181 211-439 limits assumed): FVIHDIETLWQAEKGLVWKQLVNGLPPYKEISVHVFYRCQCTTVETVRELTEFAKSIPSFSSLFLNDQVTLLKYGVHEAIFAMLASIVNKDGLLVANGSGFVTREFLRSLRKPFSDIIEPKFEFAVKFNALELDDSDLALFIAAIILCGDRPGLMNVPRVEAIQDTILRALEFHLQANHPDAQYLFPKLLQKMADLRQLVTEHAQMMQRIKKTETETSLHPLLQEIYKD
Procedure: To test for specificity, idebenone and CoQ10 were also tested on PPARα, and PPARδ/β receptors in vivo and in vitro. […] The same relative responses were obtained with HEK 293 cells grown in culture and transfected with PPAR expression vectors and luciferase reporters (FIG. 5).

PPARα = biological target: T2, PPARα (Homo sapiens, UniProt Q07869); test: PPARα ligand trap zebrafish GFP reporter assay; format: in vivo; design: pLT PPARα (aa 178-468) and pLT PPAR γ (aa 188-477) lines; expressed in transfected cells; host or cells: transgenic zebrafish embryos (ligand-trap line); details: transgenic embryos, 48 hpf
T2 sequence (Q07869 178-468): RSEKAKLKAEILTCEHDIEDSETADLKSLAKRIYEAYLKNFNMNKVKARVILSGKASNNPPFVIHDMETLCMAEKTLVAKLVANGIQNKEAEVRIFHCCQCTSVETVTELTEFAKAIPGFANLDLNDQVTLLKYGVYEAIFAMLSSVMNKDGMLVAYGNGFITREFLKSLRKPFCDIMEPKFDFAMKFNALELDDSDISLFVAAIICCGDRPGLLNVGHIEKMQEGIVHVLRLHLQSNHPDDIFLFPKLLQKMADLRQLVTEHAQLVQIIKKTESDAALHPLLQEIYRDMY
Procedure: Zebrafish were maintained at 28.5° C. on a 14/10 hour light/dark cycle and staged according to hours (h) or days (d) postfertilization. To generate pLT PPARα (aa 178-468) and pLT PPAR γ (aa 188-477) lines, plasmids were pre-digested with I-SceI (0.8 μg DNA, 1 μl I-SceI (New England Biolabs) 2 μl 10×I-SceI buffer, 1 μl BSA) for 20 min at 37° C. Digested DNA was adjusted with 0.1% phenol red. 4.6 nl of DNA solution was injected into the blastomeres of early one-cell stage embryos.
(§1) F0 fish were crossed with WT fish to identify germ-line transformed animals, as determined by agonist treatments and GFP expression. F1 progeny showing strong and consistent GFP responses were selected for F2 homozygote production. To avoid reporter GFP silencing of stable transgenic LT lines, homozygous fish showing strong and consistent GFP responses were selected for continued propagation of next generations.
PPARγ ligand trap zebrafish screens were performed under optimized conditions in 96-well format using the ImageXpress Velos Laser Scanning Cytometer. 1 or 2 dpf embryos were heat induced (28→37° C.) for 30 minutes, de-chorionated and then arrayed in 96-well plates (5 per well). […] Embryos were incubated at 28° C. for 14 h, anesthetized with Tricaine (Sigma, Cat. # A-5040) and then analyzed for GFP fluorescence using the ImageXpress Velos Laser Scanning Cytometer.

hPPARγ = biological target: T3, hPPARγ (Homo sapiens, UniProt P37231); test: PPARγ ligand trap (LT) zebrafish GFP reporter screen/assay; format: in vivo; design: pLT PPARα (aa 178-468) and pLT PPAR γ (aa 188-477) lines; expressed in transfected cells; host or cells: transgenic zebrafish embryos (heat-induced ligand-trap line); details: transgenic embryos, 48 hpf images
T3 sequence (P37231 188-477 isoform P37231-2): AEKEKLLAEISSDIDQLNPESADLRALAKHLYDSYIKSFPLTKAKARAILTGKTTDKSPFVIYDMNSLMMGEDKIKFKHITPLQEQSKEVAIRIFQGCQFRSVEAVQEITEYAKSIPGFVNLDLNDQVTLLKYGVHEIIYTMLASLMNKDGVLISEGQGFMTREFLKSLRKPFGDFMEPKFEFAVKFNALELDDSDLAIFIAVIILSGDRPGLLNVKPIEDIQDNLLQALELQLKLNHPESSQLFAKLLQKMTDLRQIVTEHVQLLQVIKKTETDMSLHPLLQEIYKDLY
Procedure: Digested DNA was adjusted with 0.1% phenol red. 4.6 nl of DNA solution was injected into the blastomeres of early one-cell stage embryos.
as §1
PPARγ ligand trap zebrafish screens were performed under optimized conditions in 96-well format using the ImageXpress Velos Laser Scanning Cytometer. 1 or 2 dpf embryos were heat induced (28→37° C.) for 30 minutes, de-chorionated and then arrayed in 96-well plates (5 per well). Embryo water (0.075 g/L NaHCO3, 0.018 g/L Sea salt, 0.0084 g/L CaSO42H2O) was removed and 200 μl of fresh embryo water/well including dissolved small molecules or solvent was added.
Also included was the CoQ10 analog idebenone.

hPPARδ/β = biological target: T4, hPPARδ/β (Homo sapiens, UniProt Q03181); test: HEK293 cell culture luciferase reporter assay, hPPARδ/β; details: read-out: EC50 hPPARδ/β; HEK293, GAL4-hPPARδ/β LBD, luciferase
T4 sequence (Q03181 143-441): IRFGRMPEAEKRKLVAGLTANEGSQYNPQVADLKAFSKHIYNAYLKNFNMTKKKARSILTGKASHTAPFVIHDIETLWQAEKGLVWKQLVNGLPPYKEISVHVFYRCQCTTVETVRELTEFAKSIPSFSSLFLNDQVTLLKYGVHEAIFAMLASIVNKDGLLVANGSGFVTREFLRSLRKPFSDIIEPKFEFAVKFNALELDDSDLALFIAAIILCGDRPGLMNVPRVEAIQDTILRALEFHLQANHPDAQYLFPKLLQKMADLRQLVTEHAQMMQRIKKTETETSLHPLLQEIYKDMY

[1] = biological target: T5, human PPARγ LBD (residues 206-477) (Homo sapiens, UniProt P37231); test: Stargazer thermostabilization assay; format: binding; details: 0.2 mg/ml PPARγ LBD, heated to 80° C.
T5 construct: human PPARγ LBD (residues 206-477), expressed in pRSET; His tag (implied by Ni-NTA purification and the pRSET vector); made in house; host or cells: E. coli BL21 codon plus (pRSET)
T5 sequence (P37231 206-477 isoform P37231-2): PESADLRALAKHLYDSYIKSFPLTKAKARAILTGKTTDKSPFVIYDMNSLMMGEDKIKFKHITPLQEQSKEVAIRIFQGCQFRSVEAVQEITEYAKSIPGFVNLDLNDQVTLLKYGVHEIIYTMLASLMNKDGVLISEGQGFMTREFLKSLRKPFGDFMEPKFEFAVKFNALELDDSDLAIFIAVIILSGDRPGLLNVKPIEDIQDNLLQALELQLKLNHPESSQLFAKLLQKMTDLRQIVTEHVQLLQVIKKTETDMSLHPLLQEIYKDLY

C57Bl/6 db/db mice = test: db/db mouse study (NAFLD features); format: in vivo; details: 10 mpk in food, 3 weeks, versus vehicle
Procedure: Db/db study: Forty male C57Bl/6 db/db mice (called B6.BKS(D)-Lepr db/J) were ordered from Jackson Laboratories (#000697) at 7 weeks of age. Mice were housed individually with free access to food (2016 Teklad Global 16% Protein Rodent Diet) and water on a 14 hour light/dark cycle (6 a.m. to 8 p.m. light). […] Food was exchanged on a daily bases. Harlan corn cob bedding was provided and was changed every week or as needed. Following a 1 week acclimation, 32 mice were chosen based on desired body weight range. Remaining mice were euthanized. Mice were randomized by body weight into four treatment groups (n=8) by body weight. Dosing occurred for 21 days. Mice were euthanized by CO2 euthanasia and livers were fixed in neutral buffered formalin (NBF) for 24 h, followed by a one day fixation in 30% Sucrose and 10% Sucrose. Oil O Red staining was performed through the Pathology Research Program at the University Health Network in Toronto [46]. [table] 100 mg of db/db livers were homogenized in RIPA buffer and protein concentration was quantified using a BCA protein assay kit (Cell signalling #7780) followed by measurement of ‘Thiobarbituric Acid Reactive Substances’ (TBARS) using a TBARS assay kit (Cayman Chemicals #10009055). Total RNA was extracted from 100 mg of db/db livers using RNA STAT-60 (Tel-Test, Inc.), treated with DNase I (RNase-free, Roche), and reverse transcribed into cDNA with random hexamers using the High Capacity Reverse transcription system (Applied Biosystems, ABI). Primers used are shown below and were validated as previously described. Real-time QPCR reactions were performed on an ABI 7900 in 384-well plates containing 12.5 ng cDNA, 150 nM of each primer, and 5 μl 2×SYBR Green PCR Master Mix (ABI) in a 10 μl total volume. Relative mRNA levels were calculated using the comparative Ct method normalized to cyclophilin mRNA.

[2] = test system: GFP-expressing leukocytes recruited in response to CuSO4; test: Zebrafish inflammation assay (CuSO4); format: in vivo; details: 10 μM CuSO4, 55 hpf embryos
Procedure: Assay was performed as described in [47]. Fifteen dechorionated 55 hpf (hours post fertilization) embryos were transferred in each well of 6-well plates in 6 ml of embryo water. Idebenone was added at increasing concentrations (0.25, 0.75, 1.5, 3 and 5 μM). Embryos were incubated in the dark for 1 hr at 28 C, followed by a second 40 min incubation with copper sulfate (CuSO4) at a final concentration of 10 μM at 28 C in the dark. Embryos were then transferred to Eppendorf tubes and fixed in 4% paraformaldehyde in 1×PBS overnight at 4 C in the dark. Numbers of GFP+ cells were counted along the lateral line/neuromast clusters.
Previous studies have shown that PPAR agonists have anti-inflammatory properties, and can be used to treat a variety of inflammatory responses. To test if this is also true for idebenone, we used a zebrafish model of inflammation. Exposure of fish larvae to copper sulfate causes non-invasive damage to neuromast cells, which form external clusters along the lateral midline. This inflammation can be visualized via the recruitment of GFP-expressing leukocytes. As expected, this recruitment of GFP positive cells could be alleviated by addition of the known anti-inflammatory agent ibuprofen (FIG. 11).

Response of PPARδ/β transgenic line (PPARδ/β): no response
GFP reporter activation in LT-PPARγ embryos (hPPARγ): dual agonists for PPARα and PPARγ
SMILES: COC1=C(OC)C(=O)C(C/C=C(\C)CC/C=C(\C)CC/C=C(\C)CC/C=C(\C)CC/C=C(\C)CC/C=C(\C)CC/C=C(\C)CC/C=C(\C)CC/C=C(\C)CCC=C(C)C)=C(C)C1=O [CoQ10, coenzyme Q10]
GFP response of PPARα LT line (PPARα): robust response; also recorded: dual agonists for PPARα and PPARγ

SMILES: COC1=C(OC)C(=O)C(CC=C(C)C)=C(C)C1=O [CoQ1, coenzyme Q1]
GFP reporter activation in LT-PPARγ embryos (hPPARγ): relatively weak activity; also recorded: weak PPARγ activation

SMILES: O=C1C=CC(=O)C=C1 [1,4-benzoquinone]
GFP reporter activation in LT-PPARγ embryos (hPPARγ): did not induce a detectable response
GFP reporter activation in LT-PPARγ embryos (hPPARγ; listed as benzoquinone): no reporter activation

EC50 (hPPARδ/β): 12.8 nM
SMILES: O=C(O)COc1ccc(SCC=C(c2ccc(Br)cc2)c2ccc(Br)cc2)cc1Cl [CAY10592]

GFP reporter activation in LT-PPARγ embryos (hPPARγ): activity similar to idebenone and CoQ10
SMILES: COC1=C(OC)C(=O)C(C/C=C(\C)CCC=C(C)C)=C(C)C1=O [CoQ2, coenzyme Q2]

Shift of thermal denaturation transition temperature [1]: 8.5 °C
SMILES: COC1=C(OC)C(=O)C(C)=CC1=O [CoQ0, Coenzyme Q0]
GFP reporter activation in LT-PPARγ embryos (hPPARγ): relatively weak activity; also recorded: weak PPARγ activation

SMILES: COC1=C(OC)C(=O)C(CCCCCCCCCC[P+](c2ccccc2)(c2ccccc2)c2ccccc2)=C(C)C1=O [MitoQ, 10-[4,5-dimethoxy-2-methyl-3,6-dioxo-1,4-cycloheexadienl-yl]decyl triphenylphosphonium methanesulfonate]
GFP reporter activation in LT-PPARγ embryos (hPPARγ): failed to activate; also recorded: no activation

SMILES: CN(CCOc1ccc(CC2SC(=O)NC2=O)cc1)c1ccccn1 (stereo not shown) [rosiglitazone]
Gain in liver weight (C57Bl/6 db/db mice): 8.6%

SMILES: CC(C)Cc1ccc(C(C)C(=O)O)cc1 (stereo not shown) [Ibuprofen]
Recruitment of GFP positive leukocytes (anti-inflammatory activity) [2]: alleviated
